Laboratory results: PubChem BioAssay AID248 (DTP/NCI, 2004)
Values joined by “and” are separate entries in the source; they are usually repeats but may differ in a detail not shown here. Identical values can stand only once. Toxic doses and inconclusive results are not listed. No stated cut-off is given here; in the data, active means T/C of 150% or more; inactive means T/C below 125%.

Tested on: L1210 leukemia ip in BDF1 mice, survival T/C
Assay: NCI In Vivo Anticancer Drug Screen. Data for tumor model L1210 Leukemia (intraperitoneal) in B6D2F1 (BDF1) mice
Settings: endpoint: mean survival time, higher = longer survival
Procedure, shortened: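 Value reflects the ratio of survival in compound-treated mice to survival in vehicle-treated controls, with both groups carrying the same transplanted tumor.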

[1] = dose: 100.0 mg/kg/injection, schedule: Q04DX003 (ip), vehicle: saline sonified
[2] = dose: 200.0 mg/kg/injection, schedule: Q04DX003 (ip), vehicle: saline sonified
[3] = dose: 400.0 mg/kg/injection, schedule: Q04DX003 (ip), vehicle: saline sonified
[4] = dose: 100.0 mg/kg/injection, schedule: Q01DX009 (ip), vehicle: Klucel (hydroxypropylcellulose) (HPC)
[5] = dose: 200.0 mg/kg/injection, schedule: Q01DX009 (ip), vehicle: Klucel (hydroxypropylcellulose) (HPC)
[6] = dose: 400.0 mg/kg/injection, schedule: Q01DX009 (ip), vehicle: Klucel (hydroxypropylcellulose) (HPC)
[7] = dose: 100.0 mg/kg/injection, schedule: Q04DX002 (ip), vehicle: saline with Tween-80
[8] = dose: 200.0 mg/kg/injection, schedule: Q04DX002 (ip), vehicle: saline with Tween-80
[9] = dose: 400.0 mg/kg/injection, schedule: Q04DX002 (ip), vehicle: saline with Tween-80
[10] = dose: 100.0 mg/kg/injection, schedule: Q01DX001 (ip), vehicle: carboxymethylcellulose (CMC)
[11] = dose: 200.0 mg/kg/injection, schedule: Q01DX001 (ip), vehicle: carboxymethylcellulose (CMC)
[12] = dose: 400.0 mg/kg/injection, schedule: Q01DX001 (ip), vehicle: carboxymethylcellulose (CMC)

Measured: T/C

CCSc1ncc(C)c(Cl)n1
inactive: dose: 100.0 mg/kg/injection, schedule: Q01DX009 (ip), vehicle: water 103 % of control | dose: 100.0 mg/kg/injection, schedule: Q04DX003 (ip), vehicle: water 100 % of control | dose: 200.0 mg/kg/injection, schedule: Q01DX009 (ip), vehicle: water 94 % of control | dose: 200.0 mg/kg/injection, schedule: Q04DX003 (ip), vehicle: water 108 % of control | dose: 400.0 mg/kg/injection, schedule: Q01DX009 (ip), vehicle: water 100 % of control | dose: 400.0 mg/kg/injection, schedule: Q04DX003 (ip), vehicle: water 100 % of control

CCOC(=O)C(CC(C)C)NC(=O)C(Cc1ccc(N(CCCl)CCCl)cc1)NC(C)=O (stereo not drawn)
inactive: dose: 1.0 mg/kg/injection, schedule: Q01DX009 (ip), vehicle: other 108 % of control | dose: 2.0 mg/kg/injection, schedule: Q01DX009 (ip), vehicle: other 108 % of control | dose: 4.0 mg/kg/injection, schedule: Q01DX009 (ip), vehicle: other 120 % of control | dose: 8.0 mg/kg/injection, schedule: Q01DX009 (ip), vehicle: other 119 % of control | dose: 16.0 mg/kg/injection, schedule: Q01DX009 (ip), vehicle: other 109 % of control | dose: 32.0 mg/kg/injection, schedule: Q01DX009 (ip), vehicle: other 116 % of control | dose: 62.5 mg/kg/injection, schedule: Q01DX001 (oral), vehicle: alcohol 102 % of control | dose: 66.0 mg/kg/injection, schedule: Q01DX001 (ip), vehicle: olive oil, sesame oil, peanut oil 108 % of control | dose: 100.0 mg/kg/injection, schedule: Q01DX001 (ip), vehicle: olive oil, sesame oil, peanut oil 110 % of control | dose: 125.0 mg/kg/injection, schedule: Q01DX001 (oral), vehicle: alcohol 101 % of control | dose: 250.0 mg/kg/injection, schedule: Q01DX001 (oral), vehicle: alcohol 104 % of control | dose: 250.0 mg/kg/injection, schedule: Q01DX001 (oral), vehicle: olive oil, sesame oil, peanut oil 113 % of control | dose: 500.0 mg/kg/injection, schedule: Q01DX001 (oral), vehicle: alcohol 113 % of control

Cc1nc(N)ccc1[N+](=O)[O-]
inactive: [1] 98 % of control | [2] 101 % of control | [3] 104 % of control

ClCCCCOCC1CCCO1 (stereo not drawn)
inactive: dose: 100.0 mg/kg/injection, schedule: Q01DX009 (ip), vehicle: saline with Tween-80 100 % of control | dose: 200.0 mg/kg/injection, schedule: Q01DX009 (ip), vehicle: saline with Tween-80 107 % of control

Nc1ccc(-c2ccc(N)c(Cl)c2)cc1Cl
inactive: dose: 100.0 mg/kg/injection, schedule: Q04DX003 (ip), vehicle: saline 100 % of control | dose: 200.0 mg/kg/injection, schedule: Q04DX003 (ip), vehicle: saline 103 % of control | dose: 400.0 mg/kg/injection, schedule: Q04DX003 (ip), vehicle: saline 91 % of control

N#Cc1[nH]cnc1N1CC[N+](CCCl)=N1
inactive: dose: 100.0 mg/kg/injection, schedule: Q01DX009 (ip), vehicle: saline 104 % of control | dose: 200.0 mg/kg/injection, schedule: Q01DX009 (ip), vehicle: saline 103 % of control | dose: 400.0 mg/kg/injection, schedule: Q01DX009 (ip), vehicle: saline 95 % of control

CN(CCC#N)c1ccc(/C=C(\C#N)c2ccc(Br)cc2)cc1
inactive: [4] 94 % of control | [5] 94 % of control | [6] 96 % of control

Nc1ccccc1SCCC(=O)O
inactive: dose: 37.5 mg/kg/injection, schedule: Q04DX003 (ip), vehicle: Klucel (hydroxypropylcellulose) (HPC) 96 % of control | dose: 75.0 mg/kg/injection, schedule: Q01DX009 (ip), vehicle: saline with Tween-80 106 % of control | dose: 75.0 mg/kg/injection, schedule: Q04DX003 (ip), vehicle: Klucel (hydroxypropylcellulose) (HPC) 86 % of control | dose: 150.0 mg/kg/injection, schedule: Q01DX009 (ip), vehicle: saline with Tween-80 105 % of control | dose: 150.0 mg/kg/injection, schedule: Q04DX003 (ip), vehicle: Klucel (hydroxypropylcellulose) (HPC) 91 % of control | dose: 300.0 mg/kg/injection, schedule: Q01DX009 (ip), vehicle: saline with Tween-80 98 % of control | dose: 300.0 mg/kg/injection, schedule: Q04DX003 (ip), vehicle: Klucel (hydroxypropylcellulose) (HPC) 96 % of control

CC(C)(C)CC(O)Cc1ccccc1 (stereo not drawn)
inactive: [7] 93 % of control | [8] 93 % of control

O=C1c2ccccc2-c2nc3ccccc3nc21
inactive: dose: 45.0 mg/kg/injection, schedule: Q01DX009 (ip), vehicle: Klucel (hydroxypropylcellulose) (HPC) 95 % of control | dose: 90.0 mg/kg/injection, schedule: Q01DX009 (ip), vehicle: Klucel (hydroxypropylcellulose) (HPC) 93 % of control | [1] 101 % of control | dose: 180.0 mg/kg/injection, schedule: Q01DX009 (ip), vehicle: Klucel (hydroxypropylcellulose) (HPC) 91 % of control | [2] 97 % of control | [3] 90 % of control

Cc1cc(Cl)c(Cl)cc1NC(=O)c1c(Br)c(Br)c(Br)c(Br)c1C(=O)O
inactive: [4] 108 % of control | [5] 96 % of control | [6] 95 % of control

CC(C)(C)NC#SNC(C)(C)C
inactive: [7] 100 % of control | [8] 92 % of control | [9] 92 % of control

CN(/N=N/N(C)c1ccccc1)c1ccccc1
inactive: dose: 6.3 mg/kg/injection, schedule: Q01DX Z (sc), vehicle: carboxymethylcellulose (CMC) 102 % of control | dose: 12.5 mg/kg/injection, schedule: Q01DX Z (sc), vehicle: carboxymethylcellulose (CMC) 113 % of control | dose: 25.0 mg/kg/injection, schedule: Q01DX Z (sc), vehicle: carboxymethylcellulose (CMC) 105 % of control and 106 % of control | dose: 50.0 mg/kg/injection, schedule: Q01DX Z (sc), vehicle: carboxymethylcellulose (CMC) 102 % of control | [10] 102 % of control | dose: 100.0 mg/kg/injection, schedule: Q01DX Z (sc), vehicle: carboxymethylcellulose (CMC) 104 % of control | dose: 150.0 mg/kg/injection, schedule: Q01DX Z (sc), vehicle: carboxymethylcellulose (CMC) 91 % of control | [11] 102 % of control | dose: 300.0 mg/kg/injection, schedule: Q01DX Z (sc), vehicle: carboxymethylcellulose (CMC) 100 % of control | [12] 98 % of control

Brc1cccc(CCOCc2ccccc2)c1
inactive: [7] 103 % of control | [8] 100 % of control | [9] 97 % of control

C1CCC2[N-]CC3CCCCC3[N-]CC3CCCCC3[N-]CC3CCCCC3[N-]CC2C1.[Cu+2].[O-][Cl+3]([O-])([O-])O (stereo not drawn)
inactive: dose: 12.5 mg/kg/injection, schedule: Q04DX002 (ip), vehicle: Klucel (hydroxypropylcellulose) (HPC) 111 % of control | dose: 25.0 mg/kg/injection, schedule: Q04DX002 (ip), vehicle: Klucel (hydroxypropylcellulose) (HPC) 108 % of control | dose: 50.0 mg/kg/injection, schedule: Q04DX002 (ip), vehicle: Klucel (hydroxypropylcellulose) (HPC) 108 % of control

ClC1(Cl)C2C=CC=CCC21 (stereo not drawn)
inactive: dose: 100.0 mg/kg/injection, schedule: Q01DX009 (ip), vehicle: other 103 % of control | dose: 100.0 mg/kg/injection, schedule: Q04DX003 (ip), vehicle: other 103 % of control | dose: 200.0 mg/kg/injection, schedule: Q01DX009 (ip), vehicle: other 97 % of control | dose: 200.0 mg/kg/injection, schedule: Q04DX003 (ip), vehicle: other 92 % of control | dose: 400.0 mg/kg/injection, schedule: Q01DX009 (ip), vehicle: other 92 % of control

O=C(S)CN1C(=O)c2ccccc2C1=O
inactive: [10] 91 % of control | [11] 93 % of control | [12] 102 % of control
